Earlier results, collected in US11801275B2, “Compositions and methods for common colds” (M. ALPHABET 3, LLC, priority 2017, dated 2023).
Read-outs that look alike come from different tables or passages of the source.

Columns and labels:
[1] = tested on: upper respiratory tract infections

Row | Structure (SMILES) | pooled risk ratio (RR) of developing a cold whilst taking vitamin C regularly (common cold; five trials, 598 marathon runners, skiers and soldiers on subarctic exercises, 95% CI 0.35 to 0.64) | pooled risk ratio (RR) of developing a cold whilst taking vitamin C regularly (common cold; general community trials, 10,708 participants, 95% CI 0.94 to 1.00) | effect on the duration or severity of colds (common cold; therapeutic trials) | mean level of 25-hydroxy vitamin D ([1]; after oral vitamin D3 200,000 IU then 100,000 IU, increased from 29 (SD, 9) ng/mL, maintained throughout the study) | difference versus placebo in upper respiratory tract infections, days of missed work, duration and severity of symptoms ([1]; irrespective of season)
1 | O=C1O[C@H]([C@@H](O)CO)C(O)=C1O [vitamin C, ascorbic acid] | 0.48 | 0.97 | no consistent effect | – | –
2 | C=C1CC[C@H](O)C/C1=C/C=C1\CCC[C@]2(C)[C@@H]([C@H](C)CCCC(C)C)CC[C@@H]12 [vitamin D3] | – | – | – | greater than 48 ng/mL | no statistically significant difference
